pIC50: −log10 of the molar value.
Target: α-glucosidase
Assay: enzyme assay with PNPG substrate, absorbance at […] nm; activation ([…]) at […], inhibition at higher concentration
Format: biochemical

C=C(C=O)[C@@H]1C[C@@]2(C)C(=CC1=O)[C@H](OC(=O)/C=C/C=C/C(C)CC(C)CC)CC[C@@H]2C(=O)O (stereo partly shown) [compound 4, 07H239-A]
pIC50: 5.18

Source: publication PMC3297001, “Four Eremophilane Sesquiterpenes from the Mangrove Endophytic Fungus Xylaria sp. BL321” (2012)
